We go through five cell lines from the supplement of paper PMC10307832.

Holding throughout (assay): relative viability (nuclei count vs DMSO), 5 days (fraction); higher = more cells survive
Compound in experiment [1]: C1COCCN1C2=NC(=NC3=C2OC4=C3C=CC=N4)C5=CC(=CC=C5)NC(=O)C6=CN=C(C=C6)N + CC(=O)Nc1cccc(-n2c(=O)n(C3CC3)c(=O)c3c(Nc4ccc(I)cc4F)n(C)c(=O)c(C)c32)c1 [Trametinib] (partner 0.02 µM)
The method, boiled down: (§1)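 Nuclei were stained with Hoechst during a one-step fixation (final 0.05% Triton X-100, 1% formaldehyde, 1 ug/ml Hoechst) carried out 5 days after dosing, then counted on 4× images. The cells, lung cancer lines in 1536-well plates, had been dosed by pin tool the day after seeding with one drug alone or a fixed anchor-drug dose plus five library-drug doses (not always all listed) in √10 steps. Relative viability is the nuclei count in treated wells divided by that in vehicle wells, and each value is the median of duplicate plates.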

Compound in the experiment “Entinostat + Olaparib”: Nc1ccccc1NC(=O)c1ccc(CNC(=O)OCc2cccnc2)cc1 [Entinostat] + O=C(c1cc(Cc2n[nH]c(=O)c3ccccc23)ccc1F)N1CCN(C(=O)C2CC2)CC1 [Olaparib] (partner 8 µM)
The method, boiled down:
as §1

Compound in the experiment “Entinostat + Phenformin”: Nc1ccccc1NC(=O)c1ccc(CNC(=O)OCc2cccnc2)cc1 [Entinostat] + N=C(N)NC(=N)NCCc1ccccc1 [Phenformin] (partner 250 µM)
The procedure, abridged: as §1

Compound in the experiment “Entinostat + Navitoclax”: Nc1ccccc1NC(=O)c1ccc(CNC(=O)OCc2cccnc2)cc1 [Entinostat] + CC1(C)CCC(c2ccc(Cl)cc2)=C(CN2CCN(c3ccc(C(=O)NS(=O)(=O)c4ccc(N[C@H](CCN5CCOCC5)CSc5ccccc5)c(S(=O)(=O)C(F)(F)F)c4)cc3)CC2)C1 [Navitoclax] (partner 0.5 µM)
The procedure, abridged:
as §1

For NCI-H2347, the relative viability in experiment [1] (first compound 0.02 µM) stood at 0.302; in experiment [1] (first compound 0.06325 µM) it was 0.264; in experiment [1] (first compound 0.2 µM), 0.289; in experiment [1] (first compound 0.6325 µM), 0.314; in experiment [1] (first compound 2 µM), 0.258; with Entinostat + Olaparib (first compound 0.02 µM), 0.636. Further, the relative viability with Entinostat + Olaparib (first compound 0.06325 µM) turned out to be 0.537; with Entinostat + Olaparib (first compound 0.2 µM), 0.455; with Entinostat + Olaparib (first compound 0.6325 µM), 0.35; with Entinostat + Olaparib (first compound 2 µM) it was 0.32; in the experiment with Entinostat + Phenformin (first compound 0.02 µM), 0.378; with Entinostat + Phenformin (first compound 0.06325 µM) it was 0.243. Also, the relative viability is 0.234 with Entinostat + Phenformin (first compound 0.2 µM); 0.181 in the experiment with Entinostat + Phenformin (first compound 0.6325 µM); 0.151 with Entinostat + Phenformin (first compound 2 µM); 0.839 in the experiment with Entinostat + Navitoclax (first compound 0.02 µM); 0.746 with Entinostat + Navitoclax (first compound 0.06325 µM); 0.514 in the experiment with Entinostat + Navitoclax (first compound 0.2 µM). The relative viability amounted to 0.19 with Entinostat + Navitoclax (first compound 0.6325 µM) and 0.227 with Entinostat + Navitoclax (first compound 2 µM).
Take NCI-H2405: the relative viability in experiment [1] (first compound 0.02 µM) amounted to 0.478; in experiment [1] (first compound 0.06325 µM) it was 0.722; in experiment [1] (first compound 0.2 µM) it was 0.672; in experiment [1] (first compound 0.6325 µM), 0.553; in experiment [1] (first compound 2 µM), 0.418; with Entinostat + Olaparib (first compound 0.02 µM), 0.843. Besides, the relative viability came to 0.895 with Entinostat + Olaparib (first compound 0.06325 µM); 0.861 with Entinostat + Olaparib (first compound 0.2 µM); 0.72 with Entinostat + Olaparib (first compound 0.6325 µM); 0.623 with Entinostat + Olaparib (first compound 2 µM); 0.392 with Entinostat + Phenformin (first compound 0.02 µM); 0.462 with Entinostat + Phenformin (first compound 0.06325 µM). For the same cell line, the relative viability in the experiment with Entinostat + Phenformin (first compound 0.2 µM) was found to be 0.414; with Entinostat + Phenformin (first compound 0.6325 µM), 0.352; with Entinostat + Phenformin (first compound 2 µM), 0.358; with Entinostat + Navitoclax (first compound 0.02 µM), 1; in the experiment with Entinostat + Navitoclax (first compound 0.06325 µM) it was 1.13; with Entinostat + Navitoclax (first compound 0.2 µM) it was 1.15. Further, the relative viability with Entinostat + Navitoclax (first compound 0.6325 µM) came to 0.814; in the experiment with Entinostat + Navitoclax (first compound 2 µM) it was 0.655.
On to NCI-H3122, for which the relative viability in experiment [1] (first compound 0.02 µM) is 0.275; in experiment [1] (first compound 0.06325 µM) it was 0.249; in experiment [1] (first compound 0.2 µM), 0.233; in experiment [1] (first compound 0.6325 µM) it was 0.229; in experiment [1] (first compound 2 µM) it was 0.175; with Entinostat + Olaparib (first compound 0.02 µM), 0.653. For the same cell line, the relative viability in the experiment with Entinostat + Olaparib (first compound 0.06325 µM) worked out at 0.622; with Entinostat + Olaparib (first compound 0.2 µM), 0.604; with Entinostat + Olaparib (first compound 0.6325 µM), 0.517; in the experiment with Entinostat + Olaparib (first compound 2 µM) it was 0.452; with Entinostat + Phenformin (first compound 0.02 µM), 0.411; with Entinostat + Phenformin (first compound 0.06325 µM), 0.395. For the same cell line, the relative viability amounted to 0.389 with Entinostat + Phenformin (first compound 0.2 µM); 0.321 in the experiment with Entinostat + Phenformin (first compound 0.6325 µM); 0.22 with Entinostat + Phenformin (first compound 2 µM); 1.04 with Entinostat + Navitoclax (first compound 0.02 µM); 1 with Entinostat + Navitoclax (first compound 0.06325 µM); 1.12 with Entinostat + Navitoclax (first compound 0.2 µM). Moreover, the relative viability is 0.989 with Entinostat + Navitoclax (first compound 0.6325 µM) and 0.712 with Entinostat + Navitoclax (first compound 2 µM).
Regarding PC-3 [JPC-3], the relative viability in experiment [1] (first compound 0.02 µM) was 0.65; in experiment [1] (first compound 0.06325 µM), 0.696; in experiment [1] (first compound 0.6325 µM), 0.843; in experiment [1] (first compound 2 µM) it was 0.659; in the experiment with Entinostat + Olaparib (first compound 0.02 µM), 1.14; in the experiment with Entinostat + Olaparib (first compound 0.06325 µM), 1.12. Besides, the relative viability in the experiment with Entinostat + Olaparib (first compound 0.2 µM) is 1.04; in the experiment with Entinostat + Olaparib (first compound 0.6325 µM), 0.663; with Entinostat + Olaparib (first compound 2 µM) it was 0.456; with Entinostat + Phenformin (first compound 0.02 µM), 0.449; with Entinostat + Phenformin (first compound 0.06325 µM), 0.482; with Entinostat + Phenformin (first compound 0.2 µM), 0.523. The relative viability was 0.449 in the experiment with Entinostat + Phenformin (first compound 0.6325 µM); 0.448 with Entinostat + Phenformin (first compound 2 µM); 0.786 in the experiment with Entinostat + Navitoclax (first compound 0.02 µM); 0.846 with Entinostat + Navitoclax (first compound 0.06325 µM); 0.777 with Entinostat + Navitoclax (first compound 0.2 µM); 0.522 with Entinostat + Navitoclax (first compound 0.6325 µM). For the same cell line, the relative viability in the experiment with Entinostat + Navitoclax (first compound 2 µM) was 0.423.
In the case of PC-14, the relative viability amounted to 0.758 in experiment [1] (first compound 0.02 µM); 0.932 in experiment [1] (first compound 0.06325 µM); 0.682 in experiment [1] (first compound 0.2 µM); 0.633 in experiment [1] (first compound 0.6325 µM); 0.229 in experiment [1] (first compound 2 µM); 0.291 in the experiment with Entinostat + Olaparib (first compound 0.02 µM). The relative viability amounted to 0.294 with Entinostat + Olaparib (first compound 0.06325 µM); 0.321 with Entinostat + Olaparib (first compound 0.2 µM); 0.104 with Entinostat + Olaparib (first compound 0.6325 µM); 0.0475 in the experiment with Entinostat + Olaparib (first compound 2 µM); 0.761 in the experiment with Entinostat + Phenformin (first compound 0.02 µM); 0.61 with Entinostat + Phenformin (first compound 0.06325 µM). Besides, the relative viability with Entinostat + Phenformin (first compound 0.2 µM) stood at 0.662; in the experiment with Entinostat + Phenformin (first compound 0.6325 µM) it was 0.309; with Entinostat + Phenformin (first compound 2 µM), 0.076; in the experiment with Entinostat + Navitoclax (first compound 0.02 µM), 0.999; with Entinostat + Navitoclax (first compound 0.06325 µM), 1.07; in the experiment with Entinostat + Navitoclax (first compound 0.2 µM) it was 1.14. Further, the relative viability in the experiment with Entinostat + Navitoclax (first compound 0.6325 µM) came to 0.47; in the experiment with Entinostat + Navitoclax (first compound 2 µM) it was 0.113.
